In US20080090900A1, “ANTIBIOTIC BUSHRIN” (University of Karachi, priority 2006, published 2008):
Converted amounts (≈) assume the structure as drawn. “Also recorded” adds a separate entry of the source. Like-named read-outs stand apart in the source and are kept apart here.

Columns and labels:
Salmonella typhi [1] = experiment: disc diffusion technique; type: cell-based
Bacillus subtilis [2] = experiment: Phase contrast microscopy; type: cell-based; conditions: 50 μl/ml, immediately after treatment
Method: (§1) An exponential phase culture (A600, 0.05) of Bacillus subtilis and Staphylococcus aureus grown in Luria broth was treated with 50 μl/ml of Compound 1 for Bacillus subtilis and 60 μl/ml for Staphylococcus aureus and slides were immediately made in 1% agarose using 4 μl of Compound 1 treated cultures, time lapse images were obtained under phase contrast microscope, particular care was taken to minimize the sample exposure to UV light, image grabbing were performed essentially as described by Edwards and Errrington. (Edwards, D. H., and Errington, J.(1997). The Bacillus subtilis […] protein targets to the division septum and control the site specificity of cell division. Mol Microbiol 24:905-915).

Staphylococcus aureus [3] = experiment: Phase contrast microscopy; type: cell-based; conditions: 60 μl/ml, immediately after treatment
Method: as §1

Vibrio cholera [4] = type: cell-based; conditions: Vibrio cholerae
Clostridium perfringens [5] = type: cell-based
[6] = tested on: Staphylococcus epidermidis; experiment: disc diffusion technique; type: cell-based
Proteus morgani [7] = experiment: disc diffusion technique; type: cell-based; conditions: 150 μg disc, read-out: Sensitivity (width of inhibition zone)
Enterobacter faecalis [8] = experiment: disc diffusion technique; type: cell-based
[9] = tested on: Bacillus steriothermophilus; type: cell-based
Enterococcus faecalis [10] = type: cell-based
[11] = tested on: MSSA methicillin sensitive staphylococcus aureus; experiment: disc diffusion technique; type: cell-based
[12] = tested on: Staphylococcus epidermidis; type: cell-based
Hafnia alvei [13] = type: cell-based
[14] = tested on: MSSA methicillin sensitive staphylococcus aureus; type: cell-based
Serratia marcescens [15] = type: cell-based
Clostridium perfringens [16] = experiment: microbe, parasite or virus in culture; type: cell-based
Candida albicans [17] = experiment: disc diffusion technique; type: cell-based
Staphylococcus aureus [18] = experiment: Bacteriolytic assay; type: cell-based; conditions: 600 nm, 30° C., 0-360 min, various concentrations
Method: The seed culture of Staphylococcus aureus in Luria broth (LB) were washed twice with sterile distilled water containing 0.9% sodium chloride and the absorbance was adjusted to 0.05 at 600 nm. The bacterial cell suspension was divided into aliquots of 5 ml each placed in sterile test tube and exposed to Compound 1 at various concentration, untreated bacterial suspension were used as the negative control.

Bacillus subtilis [19] = experiment: disc diffusion technique; type: cell-based
Klebsiella aerogenes = experiment: disc diffusion technique; type: cell-based; conditions: 150 μg disc
Escherichia coli [20] = type: cell-based
Clostridium sporogenes [21] = experiment: microbe, parasite or virus in culture; type: cell-based
Shewanella putrifacians [22] = experiment: disc diffusion technique; type: cell-based; conditions: 150 μg disc, read-out: Sensitivity (width of inhibition zone)
Proteus mirabilis [23] = type: cell-based
Proteus morgani [24] = type: cell-based
Clostridium sporogenes [25] = experiment: microbe, parasite or virus in culture; type: cell-based; conditions: Clostridium sporogenes, read-out: Sensitivity (width of inhibition zone)
Enterococcus faecalis [26] = experiment: disc diffusion technique; type: cell-based; conditions: 150 μg disc, read-out: Sensitivity (width of inhibition zone)
Serratia marcescens [27] = experiment: disc diffusion technique; type: cell-based
Bacillus subtilis [28] = type: cell-based
[29] = tested on: Bacillus steriothermophilus; experiment: disc diffusion technique; type: cell-based; conditions: 150 μg disc, read-out: Sensitivity (width of inhibition zone)
Candida albicans [30] = type: cell-based; conditions: MIC determination
Proteus mirabilis [31] = experiment: disc diffusion technique; type: cell-based
Shewanella putrifacians [32] = type: cell-based
Streptococcus sp = type: cell-based
Staphylococcus aureus [33] = type: cell-based
Vibrio harveyi [34] = experiment: disc diffusion technique; type: cell-based; conditions: 150 μg disc, read-out: Sensitivity (width of inhibition zone)
Staphylococcus aureus [35] = experiment: Spheroplasting activities; type: cell-based
Method: Aliquots (100 μl) of an exponential phase culture(A600,0.05) grown in Luria broth supplemented with 0.3M concentration of sucrose were dispensed into test tubes containing different concentration of Compound 1 and 1 μl/ml ampicillin as positive control. The tubes were then incubated at 30° C. with shaking at 140 rpm. After 90 minutes, the cells were examined by phase contrast microscope for any morphological changes or for the presence of spheroplast. To confirm the osmotic fragility of the spheroplast the lytic effect of 2-3 μl of water added under the cover slip was tested.

[36] = Heat stability test (antibacterial activity by disk diffusion after heating); type: physicochemical
Method: […] After the treatment, the liquid in each tube was evaporated completely and Compound 1 was re-dissolved in methanol to give an appropriate concentration. Then antibacterial activity was evaluated in triplicate by the disk diffusion method.

Streptococcus group G = experiment: disc diffusion technique; type: cell-based; conditions: 150 μg disc
Enterococcus faecium [37] = experiment: disc diffusion technique; type: cell-based; conditions: 150 μg disc, read-out: Sensitivity (width of inhibition zone)
Vibrio harveyi [38] = type: cell-based
Bacillus subtilis [39] = experiment: Complete killing of Bacillus subtilis; type: cell-based
Vibrio cholera [40] = experiment: disc diffusion technique; type: cell-based
Escherichia coli [41] = experiment: disc diffusion technique; type: cell-based; conditions: 150 μg disc, read-out: Sensitivity (width of inhibition zone)
Bacillus cereus [42] = experiment: disc diffusion technique; type: cell-based; conditions: 150 μg disc, read-out: Sensitivity (width of inhibition zone)
Enterococcus faecium [43] = type: cell-based
Enterobacter faecalis [44] = type: cell-based
Bacillus cereus [45] = type: cell-based
Gram negative bacteria = type: cell-based
Method: (§2) The minimum inhibitory concentration (MIC) of Compound 1 was determined by the standard microdilution method described in the national committee for clinical laboratory standards (National Committee for Clinical Laboratory Standards, 1997. Method for dilution antimicrobial susceptibility test for bacteria, that grow aerobically, 4th ed., p, 1-29. National Committee for Clinical Laboratory Standards) using Muller Hinton broth medium (Oxoid) incubated at 37° C. for 24 h. […] This substance was slightly active against Streptococcus sp for which the MIC was 200 μg/ml.

Gram-positive bacteria = type: cell-based
Method: as §2

Hafnia alvei [46] = experiment: disc diffusion technique; type: cell-based
[47] = tested on: Staphylococcus aureus (ATCC33591); experiment: Time kill experiment
Salmonella typhi [48] = type: cell-based; conditions: Salmonella enterica
[49] = 150 μg disc, read-out: Sensitivity (width of inhibition zone)

For Cc1cc(O)c2c(c1)C=CC(C)(c1ccoc1)C2 (centres unmarked) [Compound 1, 7-(3-furyl)-3,7-dimethyl-7,8-dihydro-1-naphthalenol], the zone of inhibition at 150 µg/disc (Salmonella typhi [1]; Salmonella enterica, TYPHI, read-out: Sensitivity (width of inhibition zone)) was 15 to 20 mm, the “antibacterial activity” value (Salmonella typhi [1]; disc diffusion, Salmonella typhi) was “active; also recorded: activity” and the “morphological change of treated cells (time lapse images)” value (Bacillus subtilis [2]) was “uniform and consistent decrease in size of cells”. For the same molecule, the “morphological change of treated cells (time lapse images)” value (Staphylococcus aureus [3]) was “complete lyses”, the MIC (Vibrio cholera [4]) was 60 µg/mL (≈ 250 µM) and the MIC (Clostridium perfringens [5]) was 100 µg/mL (≈ 416 µM). For the same molecule, the zone of inhibition at 150 µg/disc ([6]; 150 μg disc, Staphylococcus epidermidis, read-out: Sensitivity (width of inhibition zone)) was 18 to 30 mm, the “antibacterial activity” value ([6]; Staphylococcus epidermids) was “active; also recorded: activity” and the zone of inhibition at 150 µg/disc (Proteus morgani [7]) was 18 to 30 mm. For the same molecule, the “antibacterial activity” value (Enterobacter faecalis [8]) was “active; also recorded: activity”, the MIC [9] was 50 to 60 µg/mL and the MIC ([9]; Bacillus steriothermophilus, read-out: MIC) was 50 µg/mL (≈ 208 µM). For the same molecule, the MIC (Enterococcus faecalis [10]) was 50 µg/mL (≈ 208 µM), the “antibacterial activity” value ([11]; Staphylococcus aureus MSSA) was “active; also recorded: activity” and the zone of inhibition at 150 µg/disc ([11]; Staphylococcus aureus, 150 μg disc, MSSA, read-out: Sensitivity (width of inhibition zone)) was 18 to 30 mm. It also gave an MIC [12] of 50 to 100 µg/mL, an MIC ([12]; Staphylococcus epidermidis, read-out: MIC) of 50 µg/mL (≈ 208 µM) and an MIC (Hafnia alvei [13]) of 100 µg/mL (≈ 416 µM). The MIC (Hafnia alvei [13]; Hafnia alvei, read-out: MIC) was 100 µg/mL (≈ 416 µM), the MIC [14] was 60 µg/mL (≈ 250 µM) and the MIC (Serratia marcescens [15]) was 60 µg/mL (≈ 250 µM). For the same molecule, the MIC (Serratia marcescens [15]; Serratia marcescens, read-out: MIC) was 60 µg/mL (≈ 250 µM), the zone of inhibition at 150 µg/disc (Clostridium perfringens [16]; Clostridium perfringens, read-out: Sensitivity (width of inhibition zone)) was 10 to 15 mm and the “antibacterial activity” value (Clostridium perfringens [16]; disc diffusion, anaerobic Clostridium perfringens) was “less active”. The “activity” value (Candida albicans [17]) was “not active”, the “Sensitivity (width of inhibition zone)” value (Candida albicans [17]; 150 μg disc) was “−” and the “absorbance of Staphylococcus aureus cell suspension (lysis)” value (Staphylococcus aureus [18]) was “Reduction of the absorbance”. For the same molecule, the “antibacterial activity” value (Bacillus subtilis [19]) was “active; also recorded: activity”, the zone of inhibition at 150 µg/disc (Bacillus subtilis [19]; [49]) was 18 to 30 mm and the “Sensitivity (width of inhibition zone)” value (Klebsiella aerogenes) was “−”. The MIC (Escherichia coli [20]) was 75 µg/mL (≈ 312 µM), the MIC (Clostridium sporogenes [21]) was 125 µg/mL (≈ 520 µM) and the zone of inhibition at 150 µg/disc (Shewanella putrifacians [22]) was 10 to 15 mm. For the same molecule, the MIC (Proteus mirabilis [23]) was 75 µg/mL (≈ 312 µM), the MIC (Proteus mirabilis [23]; Proteus mirabilis, read-out: MIC) was 75 µg/mL (≈ 312 µM) and the MIC (Proteus morgani [24]) was 75 µg/mL (≈ 312 µM). It also gave a zone of inhibition at 150 µg/disc (Clostridium sporogenes [25]) of 10 to 15 mm, a zone of inhibition at 150 µg/disc (Enterococcus faecalis [26]) of 18 to 30 mm and a zone of inhibition at 150 µg/disc (Serratia marcescens [27]; 150 μg disc, Serratia marcescens, read-out: Sensitivity (width of inhibition zone)) of 15 to 20 mm. The “antibacterial activity” value (Serratia marcescens [27]; Serratia marcesens) was “active; also recorded: activity”, the MIC (Bacillus subtilis [28]) was 50 to 60 µg/mL and the MIC (Bacillus subtilis [28]; Bacillus subtilis, read-out: MIC) was 50 µg/mL (≈ 208 µM). For the same molecule, the zone of inhibition at 150 µg/disc [29] was 18 to 30 mm, the “activity against Candida albicans” value (Candida albicans [30]) was “not found active” and the “antibacterial activity” value (Proteus mirabilis [31]) was “active; also recorded: activity”. For the same molecule, the zone of inhibition at 150 µg/disc (Proteus mirabilis [31]; [49]) was 18 to 30 mm, the MIC (Shewanella putrifacians [32]) was 75 µg/mL (≈ 312 µM) and the MIC (Streptococcus sp) was 200 µg/mL (≈ 832 µM). For the same molecule, the MIC (Staphylococcus aureus [33]; Staphylococcus aureus) was 50 to 100 µg/mL (≈ 208 to 416 µM), the MIC (Staphylococcus aureus [33]; Staphylococcus aureus (ATCC33591), stated in time kill experiment, read-out: MIC) was 50 µg/mL (≈ 208 µM) and the zone of inhibition at 150 µg/disc (Vibrio harveyi [34]) was 18 to 30 mm. For the same molecule, the “formation of osmotically fragile spheroplasts” value (Staphylococcus aureus [35]; Luria broth with 0.3M sucrose, 90 minutes, phase contrast microscope) was “did not induce”, the “killing of cells in osmotically protected medium” value (Staphylococcus aureus [35]; Staphylococcus aureus) was “killed” and the “antibacterial activity after heat treatment” value ([36]; at 200° C.) was “completely lost”. The “antibacterial activity after heat treatment” value ([36]; treatment at 120° C.) was “significantly reduced”, the “Sensitivity (width of inhibition zone)” value (Streptococcus group G) was “−” and the zone of inhibition at 150 µg/disc (Enterococcus faecium [37]) was 18 to 30 mm. The MIC (Vibrio harveyi [38]) was 75 µg/mL (≈ 312 µM), the “concentration that completely killed” value (Bacillus subtilis [39]) was 100 µg/mL and the “antibacterial activity” value (Vibrio cholera [40]) was “active; also recorded: activity”. It also gave a zone of inhibition at 150 µg/disc (Escherichia coli [41]) of 10 to 15 mm, a zone of inhibition at 150 µg/disc (Bacillus cereus [42]) of 18 to 30 mm and an MIC (Enterococcus faecium [43]) of 50 µg/mL (≈ 208 µM). It also gave an MIC (Enterobacter faecalis [44]) of 100 µg/mL (≈ 416 µM), an MIC (Bacillus cereus [45]) of 60 µg/mL (≈ 250 µM) and an MIC (Gram negative bacteria) of 75 to 125 µg/mL (≈ 312 to 520 µM). The MIC (Gram-positive bacteria) was 50 to 75 µg/mL (≈ 208 to 312 µM), the “antibacterial activity” value (Hafnia alvei [46]) was “active; also recorded: activity” and the zone of inhibition at 150 µg/disc (Hafnia alvei [46]; [49]) was 15 to 20 mm. The “concentration able to kill completely” value ([47]; Staphylococcus aureus) was 125 µg/mL, the “exposure time after which number of viable bacterial cells decreased” value ([47]; at MIC 50 μg/ml) was 8 h and the “course of viable bacterial cell count” value ([47]; at two and four times the MIC) was “decreased drastically”. The “time after which viable count decreased drastically” value ([47]; four times the MIC) was 1 h, the “killing rate compared with test antibiotics” value ([47]; same concentration and length of exposure, vs vancomycin, nisin, tetracycline, ampicillin) was “much higher” and the bactericidal activity ([47]; time kill, Staphylococcus aureus) was “rapidly bactericidal”. For the same molecule, the “time after which viable count decreased drastically” value ([47]; two times the MIC) was 2 h and the MIC (Salmonella typhi [48]) was 75 µg/mL (≈ 312 µM).
